# Where “and” joins values, the source holds several entries; their conditions need not be identical. Equal entries are not always repeated.
# Assays:
# [1] = target: T1, fibrin (Mus musculus, UniProt E9PV24+Q8K0E8+Q8VCM7); experiment: In vitro fibrin polymerization turbidity assay in plasma; assay type: biochemical; conditions: citrate plasma, bovine thrombin 0.2 U/ml, OD350
# T1 construct: from tissue; host or cells: citrated mouse plasma, diluted tenfold
# T1 sequence (Q8VCM7 26-436): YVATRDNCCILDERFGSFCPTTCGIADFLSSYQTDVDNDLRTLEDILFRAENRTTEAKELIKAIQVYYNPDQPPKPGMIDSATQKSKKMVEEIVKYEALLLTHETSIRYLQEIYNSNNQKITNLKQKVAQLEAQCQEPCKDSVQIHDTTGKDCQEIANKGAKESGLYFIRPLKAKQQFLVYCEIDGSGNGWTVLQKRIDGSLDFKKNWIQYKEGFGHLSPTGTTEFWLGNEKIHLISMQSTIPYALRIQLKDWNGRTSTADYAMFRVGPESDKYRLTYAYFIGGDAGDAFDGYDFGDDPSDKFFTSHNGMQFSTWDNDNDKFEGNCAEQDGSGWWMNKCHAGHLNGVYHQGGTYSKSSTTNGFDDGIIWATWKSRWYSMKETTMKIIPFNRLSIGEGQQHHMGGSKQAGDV
# T1 sequence (E9PV24 37-789 limits assumed): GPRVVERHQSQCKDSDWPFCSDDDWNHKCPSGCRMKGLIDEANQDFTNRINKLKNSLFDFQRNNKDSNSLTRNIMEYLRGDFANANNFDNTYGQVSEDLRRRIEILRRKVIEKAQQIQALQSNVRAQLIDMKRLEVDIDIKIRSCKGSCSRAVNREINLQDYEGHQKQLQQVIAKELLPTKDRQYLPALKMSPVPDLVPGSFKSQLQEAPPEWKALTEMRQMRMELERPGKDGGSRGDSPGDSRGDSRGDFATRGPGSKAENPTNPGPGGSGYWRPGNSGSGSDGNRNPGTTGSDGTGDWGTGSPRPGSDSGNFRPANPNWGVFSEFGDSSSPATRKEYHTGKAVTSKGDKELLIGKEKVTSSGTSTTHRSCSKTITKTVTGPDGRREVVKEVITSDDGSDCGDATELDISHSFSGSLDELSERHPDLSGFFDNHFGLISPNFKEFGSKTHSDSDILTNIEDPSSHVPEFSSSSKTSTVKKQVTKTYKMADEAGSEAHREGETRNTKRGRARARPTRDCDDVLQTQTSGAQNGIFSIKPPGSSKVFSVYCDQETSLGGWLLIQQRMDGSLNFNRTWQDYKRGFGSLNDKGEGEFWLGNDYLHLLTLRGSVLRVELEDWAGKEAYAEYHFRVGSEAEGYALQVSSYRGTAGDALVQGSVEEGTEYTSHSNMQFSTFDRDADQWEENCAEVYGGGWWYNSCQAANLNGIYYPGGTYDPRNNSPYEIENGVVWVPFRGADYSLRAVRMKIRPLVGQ
# T1 sequence (Q8K0E8 35-481 limits assumed): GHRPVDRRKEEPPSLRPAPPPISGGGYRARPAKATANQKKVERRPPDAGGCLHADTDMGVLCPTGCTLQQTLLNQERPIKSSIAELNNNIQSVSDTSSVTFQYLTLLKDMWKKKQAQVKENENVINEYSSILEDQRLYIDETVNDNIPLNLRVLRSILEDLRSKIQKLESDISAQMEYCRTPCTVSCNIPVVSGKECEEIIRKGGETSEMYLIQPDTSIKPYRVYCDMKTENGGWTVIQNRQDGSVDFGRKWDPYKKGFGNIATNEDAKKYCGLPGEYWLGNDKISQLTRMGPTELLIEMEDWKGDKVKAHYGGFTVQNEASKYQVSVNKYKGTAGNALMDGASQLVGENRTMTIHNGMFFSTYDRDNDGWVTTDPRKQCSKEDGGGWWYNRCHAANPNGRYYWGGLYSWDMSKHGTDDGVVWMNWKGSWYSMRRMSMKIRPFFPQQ
# Method: Hematological Analyses. Citrated plasma was prepared from mice administered intranasally 30 μg or 90 μg of γ^377-395 peptide or saline control daily for seven days. Plasma clotting times were measured by combining 10 μl of citrated plasma with 10 μl of 2 U/ml bovine thrombin (Enzyme Research Laboratories, South Bend, Ind., USA) and 40 mM. CaCl2 in a weigh boatfloating in a 37° C. water bath. Time to clot was determined by mixing with a toothpick. Plasma thrombin times were established as described previously (15). Fibrin polymerization was evaluated by standard turbidity assays using plasma. Briefly, citrate plasma (diluted tenfold in 20 mM HEPES, pH 7.4, containing 0.15 M NaCl and 5 mM-amino caproic acid) was combined with bovine thrombin (final concentration 0.2 U/ml; Enzyme Research Laboratories, South Bend, Ind., USA), and Ca^2+ (10 mM), and OD350 measurements were taken every 30 seconds.
# [2] = tested on: RhoA; experiment: RhoA activation (GST-Rhotekin pull-down, immunoblot) in microglia; assay type: cell-based, mouse; conditions: fibrinogen 6 hours, LPS 10 minutes; densitometry
# Method: (§1) Immunoblots. Western blots were performed using standard protocols (55). Microglia were serum-starved overnight and plated on fibrinogen or with LPS for 6 hours. Lysates were electrophoresed on 4-12% gradient SDS-PAGE gels and probed with phospho and total Akt antibodies (1:1000, Cell Signaling, Beverly, Mass.). RhoA activation was performed as described (60). Briefly, 2×107 microglia were plated on fibrinogen for 6 hours or with LPS for 10 minutes. Cell lysates were incubated with GST-Rhotekin agarose beads (kindly provided by Dr. Joan Heller Brown, UCSD) for 45 minutes at 4° C. The beads were washed, resuspended in Laemmli sample buffer, and electophoresed on a 15% SDS-PAGE gel. Activated and total Rho were detected with mouse anti-RhoA (1:500, Santa Cruz Biotechnology, Santa Cruz, Calif.). Densitometry was performed using the NIH Scion Image software using three blots from three separate experiments.
# [3] = tested on: Akt; experiment: Akt phosphorylation immunoblot in microglia; assay type: cell-based, mouse; conditions: fibrinogen or LPS 6 hours; densitometry
# Method: as §1
# [4] = tested on: primary microglia; experiment: Morphometry of microglia activation (Isolectin B4 staining, cell size); assay type: cell-based, mouse
# Method: Culture of primary microglia cells. Microglia were isolated from cultures of mixed cortical cells as described (59). In brief, cortices from P1 mice were isolated and digested with trypsin (0.4%) for 20 minutes at 37° C. Cells from 4 pups were plated onto PDL-coated 75 cm2 tissue-culture flasks. The culture medium (DMEM, 10% heat-inactivated FBS, and 1% Pen/Strep) was changed on day 2. After 2-3 weeks in culture, the microglia were removed by the addition of 12 mM lidocaine (Sigma-Aldrich, St. Louis, Mo.) and orbital shaking (180 rpm) for 20 minutes at 37° C. The cells were centrifuged (350×G) and the pellet was resuspended in complete medium and plated onto PDL-coated tissue culture dishes. Microglia cell cultures were >95% pure as determined with three different markers, IsoB4, IBA-1 and CD11b. To immobilize fibrinogen, tissue culture dishes were incubated overnight with 50 μg/mL fibrinogen (Calbiochem, San Diego, Calif.) in 20 mM Tris (pH 7.5) and 0.1 M NaCl at 37° C. for all fibrinogen treatments. To serve as positive controls, LPS (Sigma-Aldrich, St. Louis, Mo.) was added to the media at 1 μg/mL.
# Morphometry. Primary microglia were used for all morphologic analysis. Cells were plated on coated fibrinogen or in the presence of LPS for 72 hours. Microglia were fixed with methanol and immunostained with Isolectin B4 (1:300, Sigma-Aldrich, St. Louis, Mo.). Activated microglia were quantificated as those cells larger than 2,000 μm^2. Blocking experiments involved the daily administration of rat anti-CD11b (10 μg/mL, eBioscience, San Diego, Calif.), γ^377-395 peptide (200 μM) or rat IgG (10 μg/mL, Jackson ImmunoResearch Laboratories, West Grove, Pa.). Results were obtained from six separate experiments performed in duplicates. 250 cells per condition were counted for each individual experiment. Statistical calculations were made by using Student's t test.
# [5] = tested on: primary murine microglia and a murine microglia cell line (BV2); experiment: Vybrant phagocytosis assay in microglia; assay type: cell-based, mouse; conditions: fluorescent E. coli; stimulation with immobilized fibrinogen or LPS
# Method: Phagocytosis assay. Phagocytosis assays were performed on both primary murine microglia and a murine microglia cell line (BV2). BV2 cells are an established cell line used to study microglia responses (46). BV2 cells were routinely passaged in DMEM, 20% heat inactivated FBS, and 1% Pen/Strep. Microglia phagocytosis was assessed using the Vybrant phagocytosis assay kit (Molecular Probes, Eugene, Oreg.) according to the manufacturer's recommendations. Microglia were cultured in 96-well plates at 5,000 cells/well for 36 hours at 37° C. Blocking experiments included the addition of LY294002 (1 μM, Cell Signaling, Beverly, Mass.), rat anti-CD11b ([…], eBioscience, San Diego, Calif.), rat anti-TLR4 (10 μg/mL, eBioscience, San Diego, Calif.) or rat IgG (10 μg/mL, Jackson ImmunoResearch Laboratories, West Grove, Pa.) to the media. Results were obtained from four separate experiments performed in triplicates. Statistical calculations were made by using Student's t-test.
Substance,effect on fibrin polymerization [1],effect on fibrin polymerization ([1]; listed as GPRP),increase of active RhoA [2] [fold],increase in Akt phosphorylation [3] [fold],"changes in microglia morphology ([4]; soluble, not immobilized, fibrinogen, data not shown)","% of activated microglia ([4]; stimulation with immobilized fibrinogen alone, 72 hours, activated = cells larger than 2,000 μm^2)",increase in phagocytosis as compared to untreated controls [5] [%]
"GPRP [GPRP peptide, reference compound]",inhibits,significantly attenuated,,,,,
Fibrinogen,,,1.9,24,did not induce changes in microglia morphology,85.5±1.4% and 71±4.9%,65.3
"Lipopolysaccharide [LPS, reference compound]",,,2.4,34,,,39.1

# From patent US8569242B2, “Method of treating degenerative disorders of the nervous system” (The Regents of the University of California, priority 2005, dated 2013)
